Experimental data from patent US10196357B2, “Biaryl compositions and methods for modulating a kinase cascade” (Athenex, Inc., priority 2007, dated 2019).

Columns and labels:
c-Src 3T3 cells = assay: BrdU cell growth inhibition, c-Src 3T3; type: cell-based, mouse; details: Mus musculus, NIH3T3, read-out: c-Src 3T3 Growth, % of Control Mean, n = 3
Description: (§1) The GI50s for several of the compounds of the invention were assayed as described herein.
The cells were routinely cultured in DMEM supplemented with Fetal Bovine Serum (2.0% v/V), L-glutamine (2 mM) and Sodium Pyruvate (1 mM).
(§2) In the BrdU Assay for cell growth inhibition, quantitation of cell proliferation was based on the measurement of BrdU incorporation during DNA synthesis. The Cell Proliferation ELISA BrdU assay kit (colorimetric) was obtained from Roche Applied Science and performed as per vendor instructions.
(§3) The growth inhibition (GI) is determined from the formula GI=(T0−Tn×100/T0−CONn) where T0 is the BrdU growth of untreated cells at time “0”, Tn is the BrdU growth of treated cells at day “n” and CONn is the control BrdU growth of control cells at day “n”. The GI50 was extrapolated and the data plotted using XL-Fit 4.0 software.
(§4) For 96 well culture plate experiments, c-Src 3T3 medium was supplemented with 10 mM HEPES buffer. HT-29 cells were seeded in standard tissue culture 96-well plates and c-Src 3T3 cells were seeded in 96-well plates coated with Poly-D-lysine (BIOCOAT™). To increase CO2 diffusion, c-Src 3T3 96-well plates were incubated with their lids raised by ˜2 mm using sterile rubber caps.
(§5) Samples were reconstituted in DMSO at 20 mM and intermediate dilutions made using DMEM containing 10% FBS. […] Plates were assayed for BrdU and the data analyzed as above for GI50.
(§6) All compounds were initially prepared as 20 mM DMSO stock solutions and then diluted into buffer for the in vitro tumor growth assays. NG means no cell growth beyond the control and T means the number of cells in the drug treated wells was less than in the control (i.e. net cell loss).

HT29 cell line = assay: BrdU cell growth inhibition, HT29; type: cell-based, human; details: Homo sapiens, HT-29, read-out: HT-29 Growth, % of Control Mean, n = 3
Description: as §1
The HT29 cell line is a NCI standard human colon carcinoma cell line.
as §2, §3, §4, §5, §6
Growth Inhibition. […] T1 values≤T0 values were designated as T, cytotoxicity.

Compound `CC(C)COc1cc(F)cc(CNC(=O)Cc2ccc(-c3ccc(CN4CCOCC4)cc3)cn2)c1` [KX2-363] has an activity at 0.1 µM (c-Src 3T3 cells; 100 nM) of 92%, an activity at 1 µM (c-Src 3T3 cells; 1.0 uM) of 70% and an activity at 10 µM (c-Src 3T3 cells; 10 uM) of 100%. For the same compound, the activity at 0.05 µM (HT29 cell line; 50 nM) was 92%, the activity at 0.5 µM (HT29 cell line; 500 nM) was 67% and the activity at 5 µM (HT29 cell line; 5 uM) was < 0%.
